US8329454B2, “Device for detecting a cholinesterase-inhibiting substance comprising a hydrophilic photo-crosslinkable resin” (priority 2008, dated 2012)

System: cholinesterase
Assay: Visual detection with the cholinesterase detection device without oxidation treatment (Comparative Example 1, Example 2)
Type: biochemical
Conditions: Comparative Example 1: as Example 1 but no oxidation treatment (no NBS)
Protocol: This is a comparative experiment for confirming the effect of oxidation treatment (NBS solution suction treatment) in Example 1. In the same manner as in Example 1, the column was made to adsorb diazinone in the sample, and then not processed for oxidation treatment (NBS solution suction treatment), diazinone was eluted from the column. The eluate was added to the detection device, and an indoxyl acetate solution was added to the device.
The detection method was to follow the process shown in FIG. 3; however, since a carbamate agrichemical was the object to be detected, the NBS solution suction and discharge operation attained in Example 1 was omitted here.
As a sample, prepared was 10 mL of an aqueous solution of a carbaryl (NAC) standard liquid of a carbamate agrichemical having a diluted concentration of 10 ppb; and this was sucked in the syringe with a column chip connected to the tip thereof, as shown in FIG. 2.
The sucked solution was discharged in a beaker and again sucked, and this cycle was repeated three times whereby the sample NAC was adsorbed by the column. Subsequently, NAC was eluted from the column, and put into the device to undergo an enzyme inhibitory reaction for 5 minutes therein.
After 5 minutes, a coloring substrate of an indoxyl acetate solution was added to the device, and underwent coloration reaction for 5 minutes.
Other agrichemical substances were tested in the same manner as in Example 1 and Example 2, and the following results were obtained.

Compound	detection level
CCOP(=S)(OCC)Oc1cc(C)nc(C(C)C)n1 [diazinone]	5 ppm

Same assay, conditions: Example 2: 10 mL aqueous sample, adsorbed on column, no NBS step, 5 min inhibition, indoxyl acetate 5 min, no coloration

Compound	detected at a concentration level
CNC(=O)Oc1cccc2ccccc12 [carbaryl]	10 ppb

Same assay, conditions: Table 1, agrichemicals marked *, taken as tested in the same manner as Example 2 (no NBS oxidation)

Compound	Detection Level (ppb)
CS/C(C)=N\OC(=O)N(C)SN(C)C(=O)O/N=C(\C)SC [thiodicarb]	20 ppb
Cc1nc(N(C)C)nc(OC(=O)N(C)C)c1C [pirimicarb]	8 ppb

System: cholinesterase
Assay: Visual detection with the cholinesterase detection device after on-column NBS oxidation (Example 1)
Conditions: Example 1: 10 mL aqueous sample, adsorbed on column, 1% NBS oxidation to oxon form, 5 min inhibition, indoxyl acetate 5 min, no coloration

Compound	detected at a concentration level
CCOP(=S)(OCC)Oc1cc(C)nc(C(C)C)n1 [diazinone]	0.1 ppb

Same assay, conditions: Table 1, tested in the same manner as Example 1 (NBS oxidation)

Compound	Detection Level (ppb)
CCOP(=O)(OCC)O/C(=C\Cl)c1ccc(Cl)cc1Cl [chlorfenvinphos]	40 ppb
CCOP(=S)(OCC)Oc1ccc(=O)n(-c2ccccc2)n1 [pyridaphenthion]	1 ppb
CCOP(=S)(OCC)Oc1ccc([S+](C)[O-])cc1 (centres unmarked) [fensulfothion]	100 ppb
CCOP(=S)(OCC)Oc1nc(Cl)c(Cl)cc1Cl [chlorpyrifos]	0.2 ppb
CCOP(=S)(OCC)Oc1ccc([N+](=O)[O-])cc1 [parathion]	0.8 ppb
CCOP(=S)(OCC)Oc1ccc2c(C)c(Cl)c(=O)oc2c1 [coumafos]	2 ppb
CCOP(=S)(OCC)SCSC(C)(C)C [terbufos]	10 ppb
CCOP(=S)(OCC)Oc1cc(-c2ccccc2)on1 [isoxathion]	0.2 ppb
CNC(=O)/C=C(\C)OP(=O)(OC)OC [monocrotophos]	100 ppb
CCOP(=S)(OCC)SCn1c(=O)oc2cc(Cl)ccc21 [phosalone]	6 ppb
CCOP(=S)(NC(C)CC)Oc1cc(C)ccc1[N+](=O)[O-] (centres unmarked) [butamifos]	100 ppb
COP(=S)(OC)SCn1nnc2ccccc2c1=O [azinphos-methyl]	8 ppb
CCCSP(=S)(OCC)Oc1ccc(SC)cc1 (centres unmarked) [sulprofos]	20 ppb
COP(=O)(OC)O/C(=C\Cl)c1ccc(Cl)cc1Cl [dimethylvinphos(Z)]	100 ppb
CCOP(=S)(OCC)Oc1ccc(Cl)cc1Cl [dichlofenthion]	100 ppb
COP(=S)(OC)Oc1nc(Cl)c(Cl)cc1Cl [chlorpyrifos-methyl]	1 ppb
CCOP(=S)(OCC)SCSP(=S)(OCC)OCC [ethion]	10 ppb
CCOP(=S)(OCC)SCSCC [phorate]	80 ppb
CCOP(=S)(OCC)SCn1nnc2ccccc2c1=O [azinphos-ethyl]	1 ppb
COP(=O)(OC)O/C(=C/Cl)c1ccc(Cl)cc1Cl [dimethylvinphos(E)]	100 ppb
CCOP(=S)(OCC)Oc1cc(Cl)c(Br)cc1Cl [bromofos-ethyl]	10 ppb
CCOP(=S)(OCC)Oc1cnc2ccccc2n1 [quinalphos]	0.1 ppb
COP1(=S)OCc2ccccc2O1 (centres unmarked) [salithion]	100 ppb
COP(=S)(OC)Oc1ccc([N+](=O)[O-])c(C)c1 [fenitrothion]	40 ppb
CCN(CC)c1nc(C)cc(OP(=S)(OC)OC)n1 [pyrimiphos-methyl]	20 ppb
CCOP(=S)(Oc1ccc([N+](=O)[O-])cc1)c1ccccc1 (centres unmarked) [EPN]	40 ppb
CCCSP(=O)(OCC)SCCC [etoprophos]	100 ppb
CCCOP(=O)(OCCC)Oc1ccc(SC)cc1 [propafos]	1 ppb
etorifos	10 ppb

System: cholinesterase
Assay: not given
Conditions: prior-art kit AT-10/AT-25 (Agriscreen Ticket 10/25) by NEOGEN; cited from earlier work

Compound	detection limit
CCOP(=S)(OCC)Oc1nc(Cl)c(Cl)cc1Cl [chlorpyrifos]	~0.7 ppm
COP(=S)(OC)Oc1nc(Cl)c(Cl)cc1Cl [chlorpyrifos-methyl]	~1.0 ppm
CCOP(=S)(OCC)Oc1cc(C)nc(C(C)C)n1 [diazinone]	~2.0 ppm
CNC(=O)Oc1cccc2ccccc12 [carbaryl]	around 7.0 ppm
